{"source": "paper PMC9785542", "about": "“Discovery of 1-Benzhydryl-Piperazine-Based HDAC Inhibitors with Anti-Breast Cancer Activity: Synthesis, Molecular Modeling, In Vitro and In Vivo Biological Evaluation” (Pharmaceutics, 2022)", "key": {"MDA-MB-231 cells [1]": {"test_system": "MDA-MB-231 cells", "experiment": "Cell viability (MTT) assay, MDA-MB-231", "format": "cell-based, human", "settings": "read-out: Cytotoxic activity IC50 ± SD, MDA-MB-231", "method": "(§1) Human breast adenocarcinoma cells (MCF-7, ATCC® HTB-22™) and triple-negative breast cancer cells (MDA-MB-231, ATCC® HTB-26™) were obtained from the American Type Culture Collection (Rockville, MD, USA). Cells were maintained as a monolayer culture in DMEM:Ham’s 12 (1:1) medium (Sigma-Aldrich, St. Louis, MO, USA) supplemented with penicillin (192 U/mL), streptomycin (200 µg/mL), and 10% of heat-inactivated fetal calf serum (FCS). Cells were grown at 37 °C in 5% CO2 and humidified air atmosphere, by twice weekly subculture.\n(§2) Cytotoxic activity of synthesized 1-benzhydryl-piperazine-based HDAC inhibitors was assessed on MDA-MB-231 and MCF-7 cells using an MTT assay. MDA-MB-231 (5 × 10^3 cells/well) and MCF-7 (5 × 10^3 cells/well) were treated with synthesized compounds in six different concentrations (100, 50, 25, 12.5, 6.25, and 3.13 μM), and each concentration was added in five replicates. MTT solution (3-(4,5-dimethylthiazol-2-yl)-2,5-diphenyltetrazolium bromide) (Sigma-Aldrich, St. Louis, USA) was added to each well (20 µL) after 48 h. After 4 h of incubation, 100 μL of 10% SDS was added in each well and incubated at 37 °C. On the next day, the absorbance at 570 nm was recorded. The ratio of absorbance (570 nm) values between treated and control cells multiplied by 100 was used to calculate cell survival (%). The concentration of synthesized HDAC inhibitors that reduced cell viability by 50% was defined as the IC50 value, and was compared to the vehicle control."}, "[2]": {"target": "Human recombinant HDAC-3/NcoR2 (Homo sapiens, UniProt O15379)", "sequence (O15379 whole entry)": "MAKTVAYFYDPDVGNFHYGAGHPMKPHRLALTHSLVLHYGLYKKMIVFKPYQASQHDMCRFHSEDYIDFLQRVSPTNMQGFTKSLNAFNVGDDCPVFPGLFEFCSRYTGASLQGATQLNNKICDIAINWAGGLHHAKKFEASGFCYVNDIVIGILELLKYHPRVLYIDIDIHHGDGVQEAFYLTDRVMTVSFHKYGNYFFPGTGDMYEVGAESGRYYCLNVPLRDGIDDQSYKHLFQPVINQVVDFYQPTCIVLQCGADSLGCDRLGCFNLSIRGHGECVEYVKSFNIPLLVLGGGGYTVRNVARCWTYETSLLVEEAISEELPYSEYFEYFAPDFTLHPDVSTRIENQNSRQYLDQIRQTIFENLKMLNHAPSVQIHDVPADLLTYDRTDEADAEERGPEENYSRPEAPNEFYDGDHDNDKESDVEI", "sequence (Q9Y618 395-489 partner limits assumed)": "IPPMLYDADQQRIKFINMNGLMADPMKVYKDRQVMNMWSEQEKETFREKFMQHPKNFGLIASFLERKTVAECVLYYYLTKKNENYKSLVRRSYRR", "experiment": "HDAC-Glo I/II bioluminogenic enzyme assay, HDAC3", "format": "biochemical", "parameters": "purchased BPS Bioscience 50003", "settings": "mean ± SD of three independent experiments; read-out: HDAC Inhibition, IC50 ± SD, HDAC3"}, "MDA-MB-231 cells [3]": {"test_system": "MDA-MB-231 cells", "experiment": "Cell cycle analysis, propidium iodide flow cytometry", "format": "cell-based, human", "settings": "IC50 concentration; for percentage of cells in S phases: 48 h", "method": "MDA-MB-231 cells were treated with tested compounds for specified time courses. After treatment, examined cells were washed in cold PBS and incubated for 30 min in 96% ethanol on ice, centrifuged, and incubated with 80 μL RNase A ([…]) and 50 μL propidium iodide (50 μg/mL) for 30 min at 37 °C. The cell cycle was analyzed by FACS Calibur E440 (Becton Dickinson) flow cytometer and Cell Quest software. Results are presented as a percentage of cell cycle phases."}, "[4]": {"target": "T1, Human recombinant C-ter-His-FLAG-HDAC1 (Homo sapiens, UniProt Q13547)", "T1 construct": "His (C); FLAG (C); purchased BPS Bioscience 50051", "T1 sequence (Q13547 whole entry)": "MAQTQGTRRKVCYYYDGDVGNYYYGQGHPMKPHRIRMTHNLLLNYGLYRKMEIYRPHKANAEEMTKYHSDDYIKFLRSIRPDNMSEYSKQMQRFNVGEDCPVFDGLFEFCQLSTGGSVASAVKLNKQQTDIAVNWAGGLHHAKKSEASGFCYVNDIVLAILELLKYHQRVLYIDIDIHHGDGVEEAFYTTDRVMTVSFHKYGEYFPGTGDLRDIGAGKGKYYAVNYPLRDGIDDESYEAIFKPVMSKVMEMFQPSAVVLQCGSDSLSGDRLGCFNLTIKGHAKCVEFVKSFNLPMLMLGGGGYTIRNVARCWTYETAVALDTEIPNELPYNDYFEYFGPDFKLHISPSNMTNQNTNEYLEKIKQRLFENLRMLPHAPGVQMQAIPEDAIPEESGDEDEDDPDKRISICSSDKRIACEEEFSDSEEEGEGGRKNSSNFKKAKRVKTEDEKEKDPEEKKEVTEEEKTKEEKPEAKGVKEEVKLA", "experiment": "HDAC-Glo I/II bioluminogenic enzyme assay, HDAC1", "format": "biochemical", "settings": "mean ± SD of three independent experiments; read-out: HDAC Inhibition, IC50 ± SD, HDAC1"}, "MCF-7 cells": {"test_system": "MCF-7 cells", "experiment": "Cell viability (MTT) assay, MCF-7", "format": "cell-based", "settings": "Homo sapiens, MCF7, 48 h, read-out: Cytotoxic activity IC50 ± SD, MCF-7", "method": "as §1, §2"}, "[5]": {"target": "T2, Human recombinant C-terminal His-tag-HDAC8 (Homo sapiens, UniProt Q9BY41)", "T2 construct": "His (C); purchased BPS Bioscience 50008", "T2 sequence (Q9BY41 1-377)": "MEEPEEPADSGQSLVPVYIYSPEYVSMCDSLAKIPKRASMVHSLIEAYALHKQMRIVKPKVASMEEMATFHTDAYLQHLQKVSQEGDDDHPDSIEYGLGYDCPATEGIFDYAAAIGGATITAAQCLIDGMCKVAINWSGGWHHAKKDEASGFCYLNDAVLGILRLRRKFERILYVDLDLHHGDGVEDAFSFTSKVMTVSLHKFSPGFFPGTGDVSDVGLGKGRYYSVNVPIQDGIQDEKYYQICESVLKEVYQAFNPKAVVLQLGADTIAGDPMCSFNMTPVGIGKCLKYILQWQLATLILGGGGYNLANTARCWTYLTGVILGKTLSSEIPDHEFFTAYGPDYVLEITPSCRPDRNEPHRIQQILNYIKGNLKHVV", "experiment": "HDAC-Glo I/II bioluminogenic enzyme assay, HDAC8", "format": "biochemical", "settings": "mean ± SD of three independent experiments; read-out: HDAC Inhibition, IC50 ± SD, HDAC8"}, "MDA-MB-231 cells [6]": {"test_system": "MDA-MB-231 cells", "experiment": "Apoptosis assay, Annexin V-FITC/7-AAD flow cytometry", "format": "cell-based, human", "settings": "for early apoptotic cells: 72 h", "method": "Examined breast cancer cells (MDA-MB-231) were stained with annexin V–fluorescein isothiocyanate/and 7AAD (BD Pharmingen, San Diego, CA, USA), and the samples were prepared following the specifications given by manufacturer. The population of apoptotic cells was analyzed by flow cytometry using a FACS Calibur cytometer and Cell Quest computer software (Becton Dickinson, Heidelberg, Germany)."}, "MDA-MB-231 tumor spheres": {"test_system": "MDA-MB-231 tumor spheres", "experiment": "3D tumor sphere model, MTT and imaging", "format": "cell-based, human", "settings": "for tumor sphere viability: 50 µM, 72 h, formed spheres", "method": "MDA-MB-231 cells were seeded at a cell density of 1000 c/w in 100 μL of DMEM containing 10% FCS in a low-attachment NunclonSphera 96-well ultra-low attachment plate (Thermo Scientific Nunc™, Rochester, NY, USA), to form multicellular tumor spheres, for 4 days. The formation and growth of tumor spheres were examined and imaged with an Olympus CKX53 microscope, using a 10× objective. MDA-MB-231 tumor spheres were treated by carefully adding 50 μL of the medium with fresh nutrient medium for control spheres or with compound-supplemented medium (50 μM) for treated spheres for another 72 h. The cytotoxicity of compounds toward the MDA-MB-231 tumor spheres was investigated by MTT assay.\nThe formation and growth of tumor spheroids were examined and imaged with an Olympus CKX53 microscope, using 4x objective. The cytotoxicity of compounds toward the MDA-MB-231 tumor spheroids was investigated by MTT assay."}}, "note": "Like-named read-outs stand apart in the source and are kept apart here."}
{"smiles": "O=C(CCCCCCCN1CCN(C(c2ccccc2)c2ccccc2)CC1)NO", "note": "[Compound 8b, 8-(4-(diphenylmethyl)-piperazin-1-yl)-N-hydroxyoctanamide]", "values": [{"measurement": "IC50", "setting": "MDA-MB-231 cells [1]; Homo sapiens, MDA-MB-231, 48 h", "result": "5.42 ± 0.77", "unit": "µM"}, {"measurement": "IC50", "setting": "[2]", "result": "0.207 ± 0.014", "unit": "µM"}, {"measurement": "percentage of cells in the G2/M phase", "setting": "MDA-MB-231 cells [3]; 24 h", "result": "slight increase"}, {"measurement": "percentage of cells in S phases", "setting": "MDA-MB-231 cells [3]", "result": "increased"}, {"measurement": "IC50", "setting": "[4]", "result": "0.408 ± 0.022", "unit": "µM"}, {"measurement": "IC50", "setting": "MCF-7 cells", "result": "39.1 ± 2.7", "unit": "µM"}, {"measurement": "IC50", "setting": "[5]", "result": "0.245 ± 0.002", "unit": "µM"}, {"measurement": "late apoptotic cell population", "setting": "MDA-MB-231 cells [6]; 5 μM, control 1.13%", "result": 0.45, "unit": "%"}, {"measurement": "early apoptotic cell population", "setting": "MDA-MB-231 cells [6]; 5 μM, control 1.27%", "result": 4.13, "unit": "%"}, {"measurement": "early apoptotic cells", "setting": "MDA-MB-231 cells [6]; IC50 concentration", "result": "around 45%"}, {"measurement": "IC50", "setting": "MDA-MB-231 tumor spheres; Homo sapiens, MDA-MB-231, spheres formed 4 d, treated 72 h, MTT", "result": 50, "unit": "µM"}, {"measurement": "sphere formation and spheres viability", "setting": "MDA-MB-231 tumor spheres; co-culture 50 μM, 4 d in sphere culture conditions", "result": "significantly inhibited"}]}
{"smiles": "O=C(NO)c1ccc(CN2CCN(C(c3ccccc3)c3ccccc3)CC2)cc1", "note": "[Compound 9b, 4-(4-(diphenylmethyl)-piperazin-1-ylmethyl)-N-hydroxy-benzamide]", "values": [{"measurement": "IC50", "setting": "MDA-MB-231 cells [1]; 48 h", "result": "38.2 ± 3.01", "unit": "µM"}, {"measurement": "IC50", "setting": "MDA-MB-231 cells [1]; Homo sapiens, MDA-MB-231, 48 h", "result": 38.1, "unit": "µM"}, {"measurement": "IC50", "setting": "[2]", "result": "3.47 ± 0.121", "unit": "µM"}, {"measurement": "percentage of cells in the S phase", "setting": "MDA-MB-231 cells [3]; 24 h", "result": "increased"}, {"measurement": "percentage of cells in S phases", "setting": "MDA-MB-231 cells [3]", "result": "increased"}, {"measurement": "IC50", "setting": "[4]", "result": "1.47 ± 0.172", "unit": "µM"}, {"measurement": "IC50", "setting": "MCF-7 cells", "result": "99.5 ± 0.7", "unit": "µM"}, {"measurement": "IC50", "setting": "[5]", "result": "0.708 ± 0.045", "unit": "µM"}, {"measurement": "early apoptotic cells", "setting": "MDA-MB-231 cells [6]; IC50 concentration", "result": "around 45%"}, {"measurement": "tumor sphere viability", "setting": "MDA-MB-231 tumor spheres; MTT", "result": "did not exhibit significant cytotoxic effects"}]}
{"smiles": "O=C(CCCCCCN1CCN(C(c2ccccc2)c2ccccc2)CC1)NO", "note": "[Compound 7b, 7-(4-(diphenylmethyl)-piperazin-1-yl)-N-hydroxyheptanamide]", "values": [{"measurement": "IC50", "setting": "MDA-MB-231 cells [1]; Homo sapiens, MDA-MB-231, 48 h", "result": "10.6 ± 1.95", "unit": "µM"}, {"measurement": "IC50", "setting": "[2]", "result": "0.267 ± 0.019", "unit": "µM"}, {"measurement": "percentage of cells in the G2/M phase", "setting": "MDA-MB-231 cells [3]; 24 h", "result": "slight increase"}, {"measurement": "percentage of cells in S phases", "setting": "MDA-MB-231 cells [3]", "result": "increased"}, {"measurement": "IC50", "setting": "[4]", "result": "0.619 ± 0.023", "unit": "µM"}, {"measurement": "IC50", "setting": "MCF-7 cells", "result": "> 100", "unit": "µM"}, {"measurement": "IC50", "setting": "[5]", "result": "0.345 ± 0.017", "unit": "µM"}, {"measurement": "programmed cell death", "setting": "MDA-MB-231 cells [6]; IC50 concentration, 24 h", "result": "slight increase"}, {"measurement": "early apoptotic cells", "setting": "MDA-MB-231 cells [6]; IC50 concentration", "result": "around 45%"}, {"measurement": "tumor sphere viability", "setting": "MDA-MB-231 tumor spheres; MTT", "result": "did not exhibit significant cytotoxic effects"}, {"measurement": "sphere formation", "setting": "MDA-MB-231 tumor spheres; co-culture 4 d, at higher concentrations", "result": "inhibit sphere formation to some extent"}]}
